Laboratory results as given in patent US20120029187A1, “HALOALKYLSULFONANILIDE DERIVATIVE” (Nissan Chemical Industries, Ltd., priority 2009, published 2012).

What was measured:
Format in all cases: in vivo
common lambsquater [1] = assay: Test Example 4: herbicidal effect in foliage treatment; details: dose 3.2 g/a, three weeks after application
Method in brief: (§1)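 Post-emergence foliar spray of water-diluted emulsifiable concentrate at predetermined doses (g per are), applied to plants 14 days after sowing in sterile diluvial soil (greenhouse, 25 to 30° C). Visual scale rating of effect taken 3 weeks later.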

common ragweed [2] = assay: as above; details: dose 3.2 g/a, three weeks after application
Method in brief: as §1

redroot pigweed [3] = assay: as above; details: dose 3.2 g/a, three weeks after application
Method in brief: as §1

beadstraw [4] = assay: as above; details: dose 3.2 g/a, three weeks after application
Method in brief: as §1

Italian ryegrass [5] = assay: as above; details: dose 3.2 g/a, three weeks after application
Method in brief: as §1

barnyardgrass [6] = assay: as above; details: dose 3.2 g/a, three weeks after application
Method in brief: as §1

wild oat [7] = assay: as above; details: dose 3.2 g/a, three weeks after application
Method in brief: as §1

common chickweed [8] = assay: as above; details: dose 3.2 g/a, three weeks after application
Method in brief: as §1

water foxtail [9] = assay: as above; details: dose 3.2 g/a, three weeks after application
Method in brief: as §1

velvetleaf [10] = assay: as above; details: dose 3.2 g/a, three weeks after application
Method in brief: as §1

large crabgrass [11] = assay: as above; details: dose 3.2 g/a, three weeks after application
Method in brief: as §1

giant foxtail [12] = assay: as above; details: dose 3.2 g/a, three weeks after application
Method in brief: as §1

transplanted rice = assay: Test Example 1: preemergence treatment under submerged conditions, effect on crop; details: dose 2.52 g/a
Method in brief: (§2)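 Weed seeds and 2.5-leaf rice seedlings shared each flooded cup of alluvial soil. Dosing, expressed as g per are, was by pouring water-diluted emulsifiable concentrate onto the surface on sowing day. Mortality was graded 0 to 5 after three weeks' growth.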

barnyardgrass [13] = assay: Test Example 1: herbicidal effects in preemergence treatment under submerged conditions; details: dose 2.52 g/a
Method in brief: as §2

bulrush [14] = assay: as above; details: dose 2.52 g/a
Method in brief: as §2

ducksalad [15] = assay: as above; details: dose 2.52 g/a
Method in brief: as §2

posumbu knotweed [16] = assay: Test Example 3: herbicidal effects in soil treatment; details: dose 3.2 g/a
Method in brief: (§3)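 Seeds were sown in sterilized diluvial soil and covered with about 1.5 cm of soil. Compounds, formulated as emulsifiable concentrates and diluted with water, were sprayed evenly over the soil surface at set doses in g/a. Herbicidal effect was scored on a rating scale three weeks later.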

common lambsquater [17] = assay: as above; details: dose 3.2 g/a
Method in brief: as §3

common ragweed [18] = assay: as above; details: dose 3.2 g/a
Method in brief: as §3

redroot pigweed [19] = assay: as above; details: dose 3.2 g/a
Method in brief: as §3

beadstraw [20] = assay: as above; details: dose 3.2 g/a
Method in brief: as §3

Italian ryegrass [21] = assay: as above; details: dose 3.2 g/a
Method in brief: as §3

barnyardgrass [22] = assay: as above; details: dose 3.2 g/a
Method in brief: as §3

wild oat [23] = assay: as above; details: dose 3.2 g/a
Method in brief: as §3

common chickweed [24] = assay: as above; details: dose 3.2 g/a
Method in brief: as §3

water foxtail [25] = assay: as above; details: dose 3.2 g/a
Method in brief: as §3

velvetleaf [26] = assay: as above; details: dose 3.2 g/a
Method in brief: as §3

large crabgrass [27] = assay: as above; details: dose 3.2 g/a
Method in brief: as §3

giant foxtail [28] = assay: as above; details: dose 3.2 g/a
Method in brief: as §3

barnyardgrass [29] = assay: Test Example 2: herbicidal effects during the vegetation period under submerged conditions; details: treatment during the vegetation period under submerged conditions; dose 2.52 g/a
Method in brief: (§4)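 Barnyardgrass, bulrush and ducksalad were co-sown in alluvial soil flooded to 4 cm and grown in a greenhouse at 25 to 30° C. At the 1- or 2-leaf stage, water-diluted emulsifiable concentrates went onto the water surface at set doses (g/a). Herbicidal effect was scored three weeks later on a graded scale.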

bulrush [30] = assay: as above; details: treatment during the vegetation period under submerged conditions; dose 2.52 g/a
Method in brief: as §4

ducksalad [31] = assay: as above; details: treatment during the vegetation period under submerged conditions; dose 2.52 g/a
Method in brief: as §4

posumbu knotweed [32] = assay: Test Example 4: herbicidal effect in foliage treatment; details: dose 3.2 g/a, three weeks after application
Method in brief: as §1

| Structure (SMILES) | L: common lambsquater, herbicidal effect (common lambsquater [1]) | J: common ragweed, herbicidal effect (common ragweed [2]) | K: redroot pigweed, herbicidal effect (redroot pigweed [3]) | O: beadstraw, herbicidal effect (beadstraw [4]) | H: Italian ryegrass, herbicidal effect (Italian ryegrass [5]) | A: barnyardgrass, herbicidal effect (barnyardgrass [6]) | F: wild oat, herbicidal effect (wild oat [7]) | N: common chickweed, herbicidal effect (common chickweed [8]) | G: water foxtail, herbicidal effect (water foxtail [9]) | I: velvetleaf, herbicidal effect (velvetleaf [10]) | D: large crabgrass, herbicidal effect (large crabgrass [11]) | E: giant foxtail, herbicidal effect (giant foxtail [12]) | a: transplanted rice, effect on crop (evaluation scale 0-5) (transplanted rice) | A: barnyardgrass, herbicidal effect (evaluation scale 0-5) (barnyardgrass [13]) | B: bulrush, herbicidal effect (evaluation scale 0-5) (bulrush [14]) | C: ducksalad, herbicidal effect (evaluation scale 0-5) (ducksalad [15]) | M: posumbu knotweed, herbicidal effect (evaluation scale 0-5) (posumbu knotweed [16]) | L: common lambsquater, herbicidal effect (evaluation scale 0-5) (common lambsquater [17]) | J: common ragweed, herbicidal effect (evaluation scale 0-5) (common ragweed [18]) | K: redroot pigweed, herbicidal effect (evaluation scale 0-5) (redroot pigweed [19]) | other results |
| --- | --- | --- | --- | --- | --- | --- | --- | --- | --- | --- | --- | --- | --- | --- | --- | --- | --- | --- | --- | --- | --- |
| O=C1CC(C(F)(F)F)OCN1Cc1ccccc1NS(=O)(=O)C(F)(F)F (stereo not shown) [II-14] | 4 (mortality of at least 70% and less than 90%) | 3 (mortality of at least 40% and less than 70%) | 0 (mortality of less than 5% (almost ineffective)) | 3 (mortality of at least 40% and less than 70%) | 3 (mortality of at least 40% and less than 70%) | 5 (mortality of 90% or above (nearly complete death)) | 0 (mortality of less than 5% (almost ineffective)) | 3 (mortality of at least 40% and less than 70%) | 5 (mortality of 90% or above (nearly complete death)) | 4 (mortality of at least 70% and less than 90%) | 4 (mortality of at least 70% and less than 90%) | 4 (mortality of at least 70% and less than 90%) | 0 (mortality of less than 5% (almost ineffective)) | 5 (mortality of 90% or above (nearly complete death)) | 5 (mortality of 90% or above (nearly complete death)) | 5 (mortality of 90% or above (nearly complete death)) | 5 (mortality of 90% or above (nearly complete death)) | 4 (mortality of at least 70% and less than 90%) | 4 (mortality of at least 70% and less than 90%) | 4 (mortality of at least 70% and less than 90%) | O: beadstraw, herbicidal effect (evaluation scale 0-5) (beadstraw [20]): 5 (mortality of 90% or above (nearly complete death)); H: Italian ryegrass, herbicidal effect (evaluation scale 0-5) (Italian ryegrass [21]): 3 (mortality of at least 40% and less than 70%); A: barnyardgrass, herbicidal effect (evaluation scale 0-5) (barnyardgrass [22]): 5 (mortality of 90% or above (nearly complete death)); F: wild oat, herbicidal effect (evaluation scale 0-5) (wild oat [23]): 0 (mortality of less than 5% (almost ineffective)); N: common chickweed, herbicidal effect (evaluation scale 0-5) (common chickweed [24]): 5 (mortality of 90% or above (nearly complete death)); G: water foxtail, herbicidal effect (evaluation scale 0-5) (water foxtail [25]): 5 (mortality of 90% or above (nearly complete death)); I: velvetleaf, herbicidal effect (evaluation scale 0-5) (velvetleaf [26]): 5 (mortality of 90% or above (nearly complete death)); D: large crabgrass, herbicidal effect (evaluation scale 0-5) (large crabgrass [27]): 5 (mortality of 90% or above (nearly complete death)); E: giant foxtail, herbicidal effect (evaluation scale 0-5) (giant foxtail [28]): 4 (mortality of at least 70% and less than 90%); A: barnyardgrass, herbicidal effect (evaluation scale 0-5) (barnyardgrass [29]): 5 (mortality of 90% or above (nearly complete death)); B: bulrush, herbicidal effect (evaluation scale 0-5) (bulrush [30]): 5 (mortality of 90% or above (nearly complete death)); C: ducksalad, herbicidal effect (evaluation scale 0-5) (ducksalad [31]): 5 (mortality of 90% or above (nearly complete death)) |
| CC(C)COC(=O)N(c1ccccc1CN1COC(C(F)(F)F)CC1=O)S(=O)(=O)C(F)(F)F (stereo not shown) [II-16] | 3 (mortality of at least 40% and less than 70%) | 2 (mortality of at least 20% and less than 40%) | 0 (mortality of less than 5% (almost ineffective)) | 0 (mortality of less than 5% (almost ineffective)) | 0 (mortality of less than 5% (almost ineffective)) | 0 (mortality of less than 5% (almost ineffective)) | 0 (mortality of less than 5% (almost ineffective)) | 2 (mortality of at least 20% and less than 40%) | 5 (mortality of 90% or above (nearly complete death)) | 0 (mortality of less than 5% (almost ineffective)) | 0 (mortality of less than 5% (almost ineffective)) | 0 (mortality of less than 5% (almost ineffective)) | 0 (mortality of less than 5% (almost ineffective)) | 5 (mortality of 90% or above (nearly complete death)) | 5 (mortality of 90% or above (nearly complete death)) | 5 (mortality of 90% or above (nearly complete death)) | 0 (mortality of less than 5% (almost ineffective)) | 1 (mortality of at least 5% and less than 20%) | 3 (mortality of at least 40% and less than 70%) | 0 (mortality of less than 5% (almost ineffective)) | M: posumbu knotweed, herbicidal effect (posumbu knotweed [32]): 0 (mortality of less than 5% (almost ineffective)); O: beadstraw, herbicidal effect (evaluation scale 0-5) (beadstraw [20]): 0 (mortality of less than 5% (almost ineffective)); H: Italian ryegrass, herbicidal effect (evaluation scale 0-5) (Italian ryegrass [21]): 0 (mortality of less than 5% (almost ineffective)); A: barnyardgrass, herbicidal effect (evaluation scale 0-5) (barnyardgrass [22]): 0 (mortality of less than 5% (almost ineffective)); F: wild oat, herbicidal effect (evaluation scale 0-5) (wild oat [23]): 0 (mortality of less than 5% (almost ineffective)); G: water foxtail, herbicidal effect (evaluation scale 0-5) (water foxtail [25]): 5 (mortality of 90% or above (nearly complete death)); I: velvetleaf, herbicidal effect (evaluation scale 0-5) (velvetleaf [26]): 0 (mortality of less than 5% (almost ineffective)); D: large crabgrass, herbicidal effect (evaluation scale 0-5) (large crabgrass [27]): 0 (mortality of less than 5% (almost ineffective)); E: giant foxtail, herbicidal effect (evaluation scale 0-5) (giant foxtail [28]): 0 (mortality of less than 5% (almost ineffective)); A: barnyardgrass, herbicidal effect (evaluation scale 0-5) (barnyardgrass [29]): 1 (mortality of at least 5% and less than 20%); B: bulrush, herbicidal effect (evaluation scale 0-5) (bulrush [30]): 5 (mortality of 90% or above (nearly complete death)); C: ducksalad, herbicidal effect (evaluation scale 0-5) (ducksalad [31]): 4 (mortality of at least 70% and less than 90%) |
